Experimental data: patent US8022099B2, “N-benzyl pyrrolidine derivatives” (Hoffmann-La Roche Inc., priority 2008, dated 2011)

What follows are compounds tested against T1, human NK3 receptor (Homo sapiens, UniProt P29371) (assay: [3H]SR142801 competition binding assay). Settings: hNK3 receptor binding, [3H]SR142801, membranes from HEK293 cells transiently expressing recombinant human NK3 receptor.
T1 construct: expressed in transfected cells; host or cells: HEK293 cells (transient expression), membrane preparation
T1 sequence (P29371 1-465): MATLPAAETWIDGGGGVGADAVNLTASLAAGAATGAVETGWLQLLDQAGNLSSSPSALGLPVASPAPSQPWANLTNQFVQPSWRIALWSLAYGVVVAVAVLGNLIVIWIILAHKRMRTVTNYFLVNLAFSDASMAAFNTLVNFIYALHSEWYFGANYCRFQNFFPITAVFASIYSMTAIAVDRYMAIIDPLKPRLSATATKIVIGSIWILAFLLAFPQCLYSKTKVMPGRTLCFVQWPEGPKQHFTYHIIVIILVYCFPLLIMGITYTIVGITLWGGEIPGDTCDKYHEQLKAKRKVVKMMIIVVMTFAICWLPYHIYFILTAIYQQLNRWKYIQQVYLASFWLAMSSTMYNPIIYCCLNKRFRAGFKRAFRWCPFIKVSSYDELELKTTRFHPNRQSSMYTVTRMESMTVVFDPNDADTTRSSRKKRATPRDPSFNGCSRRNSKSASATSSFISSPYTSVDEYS
Experimental: [^3H]SR142801 Competition Binding Assay
hNK3 receptor binding experiment were performed using [^3H]SR142801 (Catalog No. TRK1035, specific activity: 74.0 Ci/mmol, Amersham, GE Healthcare UK limited, Buckinghamshire, UK) and membrane isolated from HEK293 cells transiently expressing recombinant human NK3 receptor. After thawing, the membrane homogenates were centrifuged at 48,000×g for 10 min at 4° C., the pellets were resuspended in the 50 mM Tris-HCl, 4 mM MnCl2, 1 μM phosphoramidon, 0.1% BSA binding buffer at pH 7.4 to a final assay concentration of 5 μg protein/well. For inhibition experiments, membranes were incubated with [^3H]SR142801 at a concentration equal to KD value of radioligand and 10 concentrations of the inhibitory compound (0.0003-10 μM) (in a total reaction volume of 500 μl) for 75 min at room temperature (RT). At the end of the incubation, membranes were filtered onto unitfilter (96-well white microplate with bonded GF/C filter preincubated 1 h in 0.3% PEI+0.3% BSA, Packard BioScience, Meriden, Conn.) with a Filtermate 196 harvester (Packard BioScience) and washed 4 times with ice-cold 50 mM Tris-HCl, pH 7.4 buffer. Nonspecific binding was measured in the presence of 10 μM SB222200 for both radioligands. The radioactivity on the filter was counted (5 min) on a Packard Top-count microplate scintillation counter with quenching correction after addition of 45 μl of microscint 40 (Canberra Packard S. A., Zürich, Switzerland) and shaking for 1 h. Inhibition curves were fitted according to the Hill equation: y=100/(1+(x/IC50)^nH), where nH=slope factor using Excel-fit 4 software (Microsoft). IC50 values were derived from the inhibition curve and the affinity constant (Ki) values were calculated using the Cheng-Prussoff equation Ki=IC50/(1+[L]/KD) where [L] is the concentration of radioligand and KD is its dissociation constant at the receptor, derived from the saturation isotherm. All experiments were performed in duplicate and the mean±standard error (SEM) of the individual Ki values was calculated.

| SMILES | Ki [nM] |
| --- | --- |
| CN(Cc1ccc(C#N)cc1)[C@H]1CN(C(=O)N2CCN(S(C)(=O)=O)CC2)C[C@@H]1c1ccc(Cl)c(Cl)c1 (racemic) [Example 34, 4-({[(3RS,4SR)-4-(3,4-Dichloro-phenyl)-1-(4-methanesulfonyl-piperazine-1-carbonyl)-pyrrolidin-3-yl]-methyl-amino}-methyl)-benzonitrile] | 32.2 |
| CN(Cc1ccc(F)c(F)c1)[C@H]1CN(C(=O)N2CCN(S(C)(=O)=O)CC2)C[C@@H]1c1ccc(Cl)c(Cl)c1 (racemic) [Example 36, {(3SR,4RS)-3-(3,4-Dichloro-phenyl)-4-[(3,4-difluoro-benzyl)-methyl-amino]-pyrrolidin-1-yl}-(4-methanesulfonyl-piperazin-1-yl)-methanone] | 52.6 |
| CN(Cc1ccc2c(c1)OCC2)[C@H]1CN(C(=O)N2CCN(S(C)(=O)=O)CC2)C[C@@H]1c1ccc(Cl)c(Cl)c1 (racemic) [Example 37, {(3SR,4RS)-3-(3,4-Dichloro-phenyl)-4-[(2,3-dihydro-benzofuran-6-ylmethyl)-methyl-amino]-pyrrolidin-1-yl}-(4-methanesulfonyl-piperazin-1-yl)-methanone] | 76.2 |
| Cc1cc(CN(C)[C@H]2CN(C(=O)N3CCN(S(C)(=O)=O)CC3)C[C@@H]2c2ccc(Cl)c(Cl)c2)ccc1F (racemic) [Example 43, {(3SR,4RS)-3-(3,4-Dichloro-phenyl)-4-[(4-fluoro-3-methyl-benzyl)-methyl-amino]-pyrrolidin-1-yl}-(4-methanesulfonyl-piperazin-1-yl)-methanone] | 84.9 |
| CN(Cc1ccc2cc[nH]c2c1)[C@H]1CN(C(=O)N2CCN(S(C)(=O)=O)CC2)C[C@@H]1c1ccc(Cl)c(Cl)c1 (racemic) [Example 47, {(3SR,4RS)-3-(3,4-Dichloro-phenyl)-4-[(1H-indol-6-ylmethyl)-methyl-amino]-pyrrolidin-1-yl}-(4-methanesulfonyl-piperazin-1-yl)-methanone] | 69.1 |
| CC(=O)N1CCN(C(=O)N2C[C@H](c3ccc(Cl)c(Cl)c3)[C@@H](N(C)Cc3ccc(C(F)(F)F)c(F)c3)C2)CC1 (racemic) [Example 51, 1-(4-{(3SR,4RS)-3-(3,4-Dichloro-phenyl)-4-[(3-fluoro-4-trifluoromethyl-benzyl)-methyl-amino]-pyrrolidine-1-carbonyl}-piperazin-1-yl)-ethanone] | 17.3 |
| CN(Cc1ccc(C(F)(F)F)c(F)c1)[C@H]1CN(C(=O)N2CCOCC2)C[C@@H]1c1ccc(Cl)c(Cl)c1 (racemic) [Example 52, {(3SR,4RS)-3-(3,4-Dichloro-phenyl)-4-[(3-fluoro-4-trifluoromethyl-benzyl)-methyl-amino]-pyrrolidin-1-yl}-morpholin-4-yl-methanone] | 71.3 |
| CN(Cc1ccc(C#N)c(F)c1)[C@H]1CN(C(=O)N2CCN(S(C)(=O)=O)CC2)C[C@@H]1c1ccc(Cl)c(Cl)c1 (racemic) [Example 56, 4-({[(3RS,4SR)-4-(3,4-Dichloro-phenyl)-1-(4-methanesulfonyl-piperazine-1-carbonyl)-pyrrolidin-3-yl]-methyl-amino}-methyl)-2-fluoro-benzonitrile] | 22 |
| CN(Cc1ccc(C(F)(F)F)c(F)c1)[C@H]1CN(C(=O)CCCCN2CCOCC2)C[C@@H]1c1ccc(Cl)c(Cl)c1 (racemic) [Example 62, 1-{(3SR,4RS)-3-(3,4-Dichloro-phenyl)-4-[(3-fluoro-4-trifluoromethyl-benzyl)-methyl-amino]-pyrrolidin-1-yl}-5-morpholin-4-yl-pentan-1-one] | 11 |
| CN(Cc1ccc(C(F)(F)F)c(F)c1)[C@H]1CN(C(=O)N2CCN(c3ncccn3)CC2)C[C@@H]1c1ccc(Cl)c(Cl)c1 (racemic) [Example 63, {(3SR,4RS)-3-(3,4-Dichloro-phenyl)-4-[(3-fluoro-4-trifluoromethyl-benzyl)-methyl-amino]-pyrrolidin-1-yl}-(4-pyrimidin-2-yl-piperazin-1-yl)-methanone] | 8.6 |
| COc1ccc(N2CCN(C(=O)N3C[C@H](c4ccc(Cl)c(Cl)c4)[C@@H](N(C)Cc4ccc(C(F)(F)F)c(F)c4)C3)CC2)cc1 (racemic) [Example 64, {(3SR,4RS)-3-(3,4-Dichloro-phenyl)-4-[(3-fluoro-4-trifluoromethyl-benzyl)-methyl-amino]-pyrrolidin-1-yl}-[4-(4-methoxy-phenyl)-piperazin-1-yl]-methanone] | 2.8 |
| CN(Cc1ccc(C(F)(F)F)c(F)c1)[C@H]1CN(C(=O)N2CCN(c3ccccn3)CC2)C[C@@H]1c1ccc(Cl)c(Cl)c1 (racemic) [Example 65, {(3SR,4RS)-3-(3,4-Dichloro-phenyl)-4-[(3-fluoro-4-trifluoromethyl-benzyl)-methyl-amino]-pyrrolidin-1-yl}-(4-pyridin-2-yl-piperazin-1-yl)-methanone] | 4.1 |
| CN(Cc1ccc(C(F)(F)F)c(F)c1)[C@H]1CN(C(=O)N2CCN(CCCO)CC2)C[C@@H]1c1ccc(Cl)c(Cl)c1 (racemic) [Example 66, {(3SR,4RS)-3-(3,4-Dichloro-phenyl)-4-[(3-fluoro-4-trifluoromethyl-benzyl)-methyl-amino]-pyrrolidin-1-yl}-[4-(3-hydroxy-propyl)-piperazin-1-yl]-methanone] | 3 |
| CN(Cc1ccc(C(F)(F)F)c(F)c1)[C@H]1CN(C(=O)N2CCN(CCO)CC2)C[C@@H]1c1ccc(Cl)c(Cl)c1 (racemic) [Example 67, {(3SR,4RS)-3-(3,4-Dichloro-phenyl)-4-[(3-fluoro-4-trifluoromethyl-benzyl)-methyl-amino]-pyrrolidin-1-yl}-[4-(2-hydroxy-ethyl)-piperazin-1-yl]-methanone] | 6.2 |
| CN(Cc1ccc(C(F)(F)F)c(F)c1)[C@H]1CN(C(=O)N2CCN(c3ccncc3)CC2)C[C@@H]1c1ccc(Cl)c(Cl)c1 (racemic) [Example 68, {(3SR,4RS)-3-(3,4-Dichloro-phenyl)-4-[(3-fluoro-4-trifluoromethyl-benzyl)-methyl-amino]-pyrrolidin-1-yl}-(4-pyridin-4-yl-piperazin-1-yl)-methanone] | 5.9 |
| CN(Cc1ccc(C(F)(F)F)c(F)c1)[C@H]1CN(C(=O)N2CCN(c3cnccn3)CC2)C[C@@H]1c1ccc(Cl)c(Cl)c1 (racemic) [Example 69, {(3SR,4RS)-3-(3,4-Dichloro-phenyl)-4-[(3-fluoro-4-trifluoromethyl-benzyl)-methyl-amino]-pyrrolidin-1-yl}-(2,3,5,6-tetrahydro-[1,2′]bipyrazinyl-4-yl)-methanone] | 4.7 |
| CN(Cc1ccc(C(F)(F)F)c(F)c1)[C@H]1CN(C(=O)N2CCN(c3ccccc3C#N)CC2)C[C@@H]1c1ccc(Cl)c(Cl)c1 (racemic) [Example 70, 2-(4-{(3SR,4RS)-3-(3,4-Dichloro-phenyl)-4-[(3-fluoro-4-trifluoromethyl-benzyl)-methyl-amino]-pyrrolidine-1-carbonyl}-piperazin-1-yl)-benzonitrile] | 10.5 |
| CN(Cc1ccc(C(F)(F)F)c(F)c1)[C@H]1CN(C(=O)N2CCN(c3ccc(C#N)cc3)CC2)C[C@@H]1c1ccc(Cl)c(Cl)c1 (racemic) [Example 72, 4-(4-{(3SR,4RS)-3-(3,4-Dichloro-phenyl)-4-[(3-fluoro-4-trifluoromethyl-benzyl)-methyl-amino]-pyrrolidine-1-carbonyl}-piperazin-1-yl)-benzonitrile] | 2.7 |
| CN(Cc1ccc(C(F)(F)F)c(F)c1)[C@H]1CN(C(=O)N2CCN(c3ccc(C#N)cn3)CC2)C[C@@H]1c1ccc(Cl)c(Cl)c1 (racemic) [Example 73, 6-(4-{(3SR,4RS)-3-(3,4-Dichloro-phenyl)-4-[(3-fluoro-4-trifluoromethyl-benzyl)-methyl-amino]-pyrrolidine-1-carbonyl}-piperazin-1-yl)-nicotinonitrile] | 1.9 |
| CN(C)CCCN1CCN(C(=O)N2C[C@H](c3ccc(Cl)c(Cl)c3)[C@@H](N(C)Cc3ccc(C(F)(F)F)c(F)c3)C2)CC1 (racemic) [Example 74, {(3SR,4RS)-3-(3,4-Dichloro-phenyl)-4-[(3-fluoro-4-trifluoromethyl-benzyl)-methyl-amino]-pyrrolidin-1-yl}-[4-(3-dimethylamino-propyl)-piperazin-1-yl]-methanone] | 5.4 |
